According to ChEMBL document CHEMBL4052808, “Novel anti-prostate cancer scaffold identified by the combination of in silico and cell-based assays targeting the PI3K-AKT-mTOR pathway” (Bioorg Med Chem Lett, 2017):
pEC50: −log10 of the molar value. Active and inactive are the calls of the source. The rule behind the calls is not given here.

How the values were obtained:
PC-3 = test: Cytotoxicity against human PC3 cells by MTT assay; format: functional, cell-based
[1] = Cytotoxicity against mouse Balb/c 3T3 clone A31 cells assessed as cell viability at 100 uM by MTT assay relative to control; format: cell-based; conditions: read-out: Activity
[2] = Selectivity index, ratio of cytotoxic concentration against mouse Balb/c 3T3 clone A31 cells to EC50 for human PC3 cells; format: functional
Homo sapiens [3] = species: Homo sapiens; test: Inhibition of […] pathway in human PC3 cells assessed as phosphorylation of AKT at ser473 residues at 100 uM after 1 hr by PerCP probe based flow cytometric analysis (reference value: 43.92%); format: cell-based
Homo sapiens [4] = species: Homo sapiens; test: Inhibition of […] pathway in human PC3 cells assessed as phosphorylation of S6 at ser235 residues at 100 uM after 1 hr by alexa fluor 488 probe based flow cytometric analysis (reference value: 48.58%); format: cell-based
DU-145 = test: Cytotoxicity against human DU145 cells by MTT assay; format: functional, cell-based

SMILES | pEC50 (PC-3) | viability at 100 µM [1] [%] | Selectivity Index [2] | inhibition (Homo sapiens [3]) [%] | inhibition (Homo sapiens [4]) [%] | pEC50 (DU-145) | Activity (DU-145)
CO[C@H]1C[C@@H]2CC[C@@H](C)[C@@](O)(O2)C(=O)C(=O)N2CCCC[C@H]2C(=O)O[C@H]([C@H](C)C[C@@H]2CC[C@@H](O)[C@H](OC)C2)CC(=O)[C@H](C)/C=C(\C)[C@@H](O)[C@@H](OC)C(=O)[C@H](C)C[C@H](C)/C=C/C=C/C=C/1C [SIROLIMUS] | 4.37 | 58.3 | >2.32 | 28.9 | 7.24 | – | –
COCC[n+]1c2c(n(Cc3cnccn3)c1C)C(=O)c1ccccc1C2=O [SEPANTRONIUM BROMIDE] | 7.04 | – | – | – | – | 7.86 | –
Nc1ccc(C(=O)N2CCC(Cc3ccc(F)cc3)CC2)cn1 | 4.12 | 68.1 | >1.33 | 39.4 | 14 | – | inactive
Cc1ccccc1SC1CCN(C(=O)c2ccc(N)nc2)CC1 | 4.22 | 95.4 | >1.65 | 34.8 | 15.5 | – | inactive
